Consider four compounds from US20070135457A1, “Pyrido[2,3-d]pyrimidine-2,4-diamines as pde2 inhibitors” (Pfizer Inc., priority 2003, published 2007).

Read-outs that look alike come from different tables or passages of the source.

Data set [1] deals with T1, PDE 2 enzyme isolated from human platelets (Homo sapiens, UniProt O00408).
T1 construct: PDE 2 enzyme was isolated from human platelets; from tissue; host or cells: human platelets (pooled blood from multiple donors); HiTrap Q anion-exchange fraction eluting at about 325 mM NaCl
The data set is described as follows: PDE 2 enzyme scintillation proximity assay (SPA). Type of data set: biochemical. The method, then:
PDE 2 enzyme was isolated from human platelets with approximately 1.4 L of blood from multiple donors used to make the platelet pellets. Platelets were resuspended in approximately 75 mL of lysis buffer [20 mM Tris pH 7.2, 5 mM MgCl2, 250 mM Sucrose, 1 mM DTT, 1 μL/2 mL Sigma Protease inhibitor #8340; Sigma-Aldrich; St. Louis, Mo.] and lysed by sonication at 4° C., with 3 rounds of 1 min bursts then spun at 4° C. overnight at 100,000×g. Cleared lysates were loaded to AKTA Explorer FPLC (Amersham Biosciences; Piscataway, N.J.) in a series of three chromatographic separations, with an average load volume of 25 mL. A 5 mL HiTrap Q anion exchange column (Amersham Biosciences) was used. […] Two major cGMP activity fractions (PDE 5 and PDE 2) were isolated and pooled separately. The PDE 2-pooled fraction total was approximately 40 mL which was dispensed in cryovials of 200 μl/vial and placed in storage at −80° C.
The inhibitory activity of the compounds of formula (I) on recombinant or isolated PDE 2, and other PDE's, was determined using the […] scintillation proximity assay (SPA) kits from Amersham International (Little Chalfont, England). The SPA assays were performed using 96 well plates. The PDE SPA yttrium silicate beads (Amersham Biosciences) bind preferentially to the linear nucleotide, GMP, compared to the cyclic nucleotide, cGMP. ^3H-cGMP was added to the reaction and when the product, ^3H-GMP, was in […] to the beads, the scintillant within the bead was excited, which was detected using a Packard scintillation counter (Perkin-Elmer Life Sciences; Boston, Mass.). The enzyme concentration used was in the linear range and the Km of the enzyme was determined (15 uM). The final substrate concentration was <1/3 of Km (1 μM) so that IC50 values would approximate the Ki values. The assay was validated using literature compounds as controls before testing compounds. Then, PDE catalytic activity measurements obtained in the presence of the test compound, and those obtained in the absence of the test compound, were compared and the lC50 value is determined. […]

A further data set relates to fractured right femurs. The data set is described as follows: Rat transverse femoral fracture model. As to conditions: single 5 mg dose injected percutaneously into fracture site; three weeks after injection; male rats. It counts as in vivo. The method, then: Male Sprague-Dawley rats at 3 to 4 months of age were used. The animals were anesthetized with ketamine and xylazine at doses of 100 and 10 mg/kg, respectively. The right hindlimb of each rat was shaved and cleaned. A 1 cm incision was made just lateral to the patella and the femoral condyle was exposed. A Kirschner wire (0.045″ in diameter) was introduced into the intramedullary canal through the intercondylar portion to serve as an internal stabilization. The muscle incision was closed with vicryl and the skin incision was closed with stainless steel wound clips. The mid-diaphysis of the pinned femur was fractured by means of a three-point bending device driven by a dropped weight. The rats were permitted full weight-bearing and unrestricted activity after awakening from anesthesia. The test compounds were administered on various days after surgery by percutaneous injection onto the fracture site. The animals were sacrificed after treatment and the femurs were collected for analysis. Fracture healing was evaluated by using radiography, histological, and biomechanical test (F. Bonnarens, et al., Journal of Orthopaedic Research, 2, 97-101 (1984).
Three month-old male rats were subjected to transverse fracture of their right femurs under general anesthesia. […] Three weeks after the injections, the rats were sacrificed and the right femurs were harvested and analyzed. […]

Data set [2] relates to femur (periosteal bone induction). The data set is described as follows: Rat periosteal injection model. As to conditions: daily local injection five times per week for two weeks; Day 15; male Sprague-Dawley rats. Type of data set: in vivo. As for the experimental part: Rats were anesthetized with isoflurane (2-3 min) in a conduction chamber located in a fume hood. The right hindlimb of each rat was shaved and cleaned. A 25 gauge needle attached to a syringe was pre-filled with a formulation of the test compound for local injection. The formulation was injected onto the subperiosteum of femur in a volume of 5-15 μL for 14 days. The rats were sacrificed after dosing, the femurs were collected, and then analyzed by radiography and dual-energy X-ray absorptiometry (DEXA).
The right femur of three-week old male Sprague-Dawley rats received a daily injection of vehicle or test compound five times per week for two weeks. On Day 15, all rats were sacrificed and the right femurs were collected for analysis. Periosteal bone induction was assessed using radiography and DEXA. […] The bone mineral content (BMC) of the injected region of the femur (area between lesser trochanter and mid-shaft of the femur) was assessed by DEXA comparing rats treated with test compound with those treated only with vehicle. In this model, N^4-(3,5-dimethoxy-benzyl)-N^2-(2-pyridin-4-yl-ethyl)-pyrido[2,3-d]pyrimidine-2,4-diamine, 2-(3-{3-[4-(3,4-dimethoxy-benzylamino)-pyrido[2,3-d]pyrimidin-2-ylamino]-propyl}-phenyl)-propan-2-ol, and N^4-(3,4-dimethoxy-benzyl)-N^2-(3-phenyl-propyl)-pyrido[2,3-d]pyrimidine-2,4-diamine increased BMC by 34%, 49%, and 33% respectively. Additionally, 9-(1-acetyl-4-phenyl-butyl)-2-(3,4-dimethoxy-benzyl)-1,9-dihydropurin-6-one increased BMC by 20% in the aforementioned model.

[3] abbreviates: SPA, 1 μM substrate, read-out: PDE 2 Inhibition.

T1 sequence (O00408 whole entry): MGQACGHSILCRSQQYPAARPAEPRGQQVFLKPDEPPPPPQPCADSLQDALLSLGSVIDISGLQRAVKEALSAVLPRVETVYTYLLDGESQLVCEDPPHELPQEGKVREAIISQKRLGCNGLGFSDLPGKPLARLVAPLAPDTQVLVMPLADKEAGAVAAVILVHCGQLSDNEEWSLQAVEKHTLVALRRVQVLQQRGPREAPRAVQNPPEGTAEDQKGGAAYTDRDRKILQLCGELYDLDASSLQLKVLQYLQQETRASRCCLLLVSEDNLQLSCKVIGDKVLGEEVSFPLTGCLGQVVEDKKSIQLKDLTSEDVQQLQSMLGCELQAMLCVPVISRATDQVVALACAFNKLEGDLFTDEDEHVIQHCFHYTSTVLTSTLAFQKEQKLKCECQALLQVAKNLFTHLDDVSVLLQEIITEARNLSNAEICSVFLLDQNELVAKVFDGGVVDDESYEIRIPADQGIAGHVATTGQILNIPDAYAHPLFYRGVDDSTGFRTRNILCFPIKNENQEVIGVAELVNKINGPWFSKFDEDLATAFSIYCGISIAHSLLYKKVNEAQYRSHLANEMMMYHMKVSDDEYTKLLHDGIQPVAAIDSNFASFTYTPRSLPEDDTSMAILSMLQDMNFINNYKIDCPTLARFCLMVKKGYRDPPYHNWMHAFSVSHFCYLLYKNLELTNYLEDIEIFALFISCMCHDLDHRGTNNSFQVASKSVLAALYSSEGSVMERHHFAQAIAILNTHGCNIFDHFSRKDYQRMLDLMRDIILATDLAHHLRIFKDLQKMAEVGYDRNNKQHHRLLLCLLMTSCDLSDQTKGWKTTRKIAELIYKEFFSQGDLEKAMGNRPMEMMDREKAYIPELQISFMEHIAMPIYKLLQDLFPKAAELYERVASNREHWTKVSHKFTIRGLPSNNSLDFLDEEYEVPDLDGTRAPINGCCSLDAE

For orientation: melting point means the temperature, or range, at which the solid turns liquid. `COc1ccc(CNc2nc(NCCCc3ccccc3)nc3ncccc23)cc1OC` [Example 32, N^4-(3,4-Dimethoxy-benzyl)-N^2-(3-phenyl-propyl)-pyrido[2,3-d]pyrimidine-2,4-diamine] displayed a melting point of 190 to 192 °C. Moreover, the IC50 in data set [1] (setting [3]) lay in the range of 250 to 1000 nM. For the same compound, in the data set with fractured right femurs, the “Force-to-failure increased compared to placebo” value came out at 19% and the “stiffness increased compared to placebo” value came out at 62%. Also, the “bone mineral content (BMC) increase of injected region of femur by DEXA vs vehicle” value (from here on “bone mineral content (BMC) increase”) in data set [2] was 33%.
As to `COc1ccc(Cc2nc3c(ncn3C(CCCc3ccccc3)C(C)=O)c(=O)[nH]2)cc1OC` (stereo not shown) [9-(1-acetyl-4-phenyl-butyl)-2-(3,4-dimethoxy-benzyl)-1,9-dihydropurin-6-one, reference compound], the IC50 in data set [1] (PDE 2, read-out: IC50) was 3 nM. Further, the “bone mineral content (BMC) increase” value in data set [2] came out at 20%.
In turn, `COc1cc(CNc2nc(NCCc3ccncc3)nc3ncccc23)cc(OC)c1` [Example 3, N^4-(3,5-Dimethoxy-benzyl)-N^2-(2-pyridin-4-yl-ethyl)-pyrido[2,3-d]pyrimidine-2,4-diamine] yielded a melting point of 234 to 235 °C. Also, the IC50 in data set [1] (setting [3]) is 250 to 1000 nM. The “bone mineral content (BMC) increase” value in data set [2] was determined as 34%.
Taken in the same sequence, the figures for `COc1ccc(CNc2nc(NCCCc3cccc(C(C)(C)O)c3)nc3ncccc23)cc1OC` [Example 29, 2-(3-{3-[4-(3,4-Dimethoxy-benzylamino)-pyrido[2,3-d]pyrimidin-2-ylamino]-propyl}-phenyl)-propan-2-ol] were 204 to 205 °C, 250 to 1000 nM and 49%.
